Structures are written as SMILES.

One test addresses T1, KRas G12D mutant (Homo sapiens, UniProt P01116, G12D).
T1 construct: fused on or other part: His tag, used for capture on nickel-coated plates
Put plainly: Ras GTP binding domain inhibition assay (Cy3-GTP/Cy5-GTP competition). Particulars: 20 μM; with SOS; read-out: KRas G-12D mutant + SOS: % inh. The protocol: (§1) The following method was developed as specific assay for the following proteins: KRas wild type, KRas Q61H mutant, KRas G12C mutant, KRas G12D mutant, HRas wild type, Rac-1, and Rho-A.
(§2) • 25 mM Tris-HCl, pH 7.4 • 27 mM KCl • 137 mM NaCl • 1 mM MgCl2 • 1 mM DTT
(§3) • 50 mM Tris-HCl, pH 7.0 • 1 mM MgCl2 • 1 mM DTT
(§4) The small GTPases proteins: KRas wild type. KRas Q61H mutant, KRas G12C mutant, KRas G12D mutants, HRas wild type, Rac-1, and Rho-A were expressed as His-tagged proteins. In addition, the Guanosine nucleotide Exchange Factor (GEF) Sos protein (residues 556-1049) was expressed as a His-tagged protein. In cells, the guanine nucleotide exchange factor Sos protein promotes activation of Ras proteins by stimulating an exchange of GDP for GTP. The inclusion of Sos to the Ras GTP binding domain inhibition assay may be considered as an alternative representation of physiological cellular conditions for evaluating the inhibitory activity of some of the tested small molecules.
(§5) For the assay, all purified small GTPases proteins were diluted in Buffer-I or Buffer-II to a final concentration of 10-30 μg/mL. 200 μL of each diluted protein was added to a nickel-coated 96-well plate and incubated overnight at 4° C. Then the protein solution was discarded and 200 μL of Buffer-I or Buffer-II was added to each well in the presence of 1% DMSO. Compounds to be tested were added to the protein-coated wells at final concentration of 20 μM, and incubated for 3 hours at room temperature with and without […] of Sos added to the final hour of the incubation. When performing IC50 measurements a serial dilution of all tested concentrations was added. Then Cy3-GTP or Cy5-GTP was added to each well to a final concentration of 100 nM. The labeled GTP was incubated for 45 minutes at room temperature. Following GTP incubation, wells were washed 3× in Buffer-I or Buffer-II and 200 μL of Buffer-I or Buffer-II was added to each well. Following washes, the amount of bound labeled-GTP was measured using a SpectraMax M3 (Molecular Devices).
`COCCn1cc(-c2sc3nc(-c4nccn4C)nc(N4CCC(OC)C4)c3c2-c2ccccc2)cn1.Cl` (centres unmarked): the inhibition at 20 µM is 51 to 75%.

`COC1CCN(c2nc(-c3nccn3C)nc3sc(-c4cnc(C5CC5)o4)c(-c4ccccc4)c23)C1.Cl` (centres unmarked): the inhibition at 20 µM lay within 51 to 75%.

Staying with this test, now noted: 20 μM; without SOS; read-out: KRas G12D mutant: % inh.
For `COCCn1cc(-c2sc3nc(-c4nccn4C)nc(N4CCC(OC)C4)c3c2-c2ccccc2)cn1.Cl` (centres unmarked), the inhibition at 20 µM is 51 to 75%.

In the case of `COC1CCN(c2nc(-c3nccn3C)nc3sc(-c4cnc(C5CC5)o4)c(-c4ccccc4)c23)C1.Cl` (centres unmarked), the inhibition at 20 µM fell in the range of 51 to 75%.

Staying with this test, now noted: at 20 μM, with SOS; read-out: KRas G12D mutant + SOS: % inh.
Regarding `COc1cccc(-c2sc3nc(-c4nccn4C)nc(N[C@@H]4CC[C@H](C=O)C4)c3c2-c2ccccc2)c1F` (racemic), the inhibition at 20 µM is 51 to 75%.

In the case of `COc1c(F)cccc1-c1sc2nc(-c3nccn3C)nc(N[C@@H]3CC[C@H](OC)C3)c2c1-c1ccccc1` [drawing 1022], the inhibition at 20 µM was in the range of 76 to 100%.

As to `CO[C@H]1CC[C@@H](Nc2nc(-c3nccn3C)nc3sc(-c4cccc5[nH]ncc45)c(-c4ccccc4)c23)C1` [drawing 1024], the inhibition at 20 µM was 51 to 75%.

For the molecule `COc1cccc(-c2sc3nc(-c4nccn4C)nc(N[C@@H]4CC[C@H](OC)C4)c3c2C)c1F` [drawing 1029], the inhibition at 20 µM is 51 to 75%.

As for `COc1cccc(-c2sc3nc(-c4nc(C)cn4C)nc(N[C@@H]4CC[C@H](OC)C4)c3c2C)c1F` [drawing 1031], the inhibition at 20 µM lay within 26 to 50%.

Still in this test, the particulars now being: at 20 μM, without SOS; read-out: KRas G12D mutant: % inh.
`COc1cccc(-c2sc3nc(-c4nccn4C)nc(N[C@@H]4CC[C@H](C=O)C4)c3c2-c2ccccc2)c1F` (racemic): the inhibition at 20 µM is 51 to 75%.

`COc1c(F)cccc1-c1sc2nc(-c3nccn3C)nc(N[C@@H]3CC[C@H](OC)C3)c2c1-c1ccccc1` [drawing 1022]: the inhibition at 20 µM was in the range of 76 to 100%.

`CO[C@H]1CC[C@@H](Nc2nc(-c3nccn3C)nc3sc(-c4cccc5[nH]ncc45)c(-c4ccccc4)c23)C1` [drawing 1024]: the inhibition at 20 µM lay within 51 to 75%.

Consider `COc1cccc(-c2sc3nc(-c4nccn4C)nc(N[C@@H]4CC[C@H](OC)C4)c3c2C)c1F` [drawing 1029], for which the inhibition at 20 µM lay within 51 to 75%.

As for `COc1cccc(-c2sc3nc(-c4nc(C)cn4C)nc(N[C@@H]4CC[C@H](OC)C4)c3c2C)c1F` [drawing 1031], the inhibition at 20 µM is 1 to 25%.

Another test deals with KRas wild type. The test is described as above. Also noted: species or system human. The note with it: 20 μM; with SOS. How it is done: as §1, §2, §3, §4, §5
In the case of `COCCn1cc(-c2sc3nc(-c4nccn4C)nc(N4CCC(OC)C4)c3c2-c2ccccc2)cn1.Cl` (centres unmarked), the “KRas wild type + SOS: % inh.” value was “C (51-75% inhibition)”.

For `COC1CCN(c2nc(-c3nccn3C)nc3sc(-c4cnc(C5CC5)o4)c(-c4ccccc4)c23)C1.Cl` (centres unmarked), the “KRas wild type + SOS: % inh.” value is “C (51-75% inhibition)”.

Still in this test, the particulars now being: 20 μM; without SOS.
Consider `COCCn1cc(-c2sc3nc(-c4nccn4C)nc(N4CCC(OC)C4)c3c2-c2ccccc2)cn1.Cl` (centres unmarked), for which the “KRas wild type: % inh.” value is listed as “D (76-100% inhibition)”.

As for `COC1CCN(c2nc(-c3nccn3C)nc3sc(-c4cnc(C5CC5)o4)c(-c4ccccc4)c23)C1.Cl` (centres unmarked), the “KRas wild type: % inh.” value was “C (51-75% inhibition)”.

In a further test the test system is KRas G12C mutant. The description is as above. Further details: species or system human. The note with it: 20 μM; with SOS. The protocol:
as §1, §2, §3, §4, §5
Consider `COCCn1cc(-c2sc3nc(-c4nccn4C)nc(N4CCC(OC)C4)c3c2-c2ccccc2)cn1.Cl` (centres unmarked), for which the “KRas G12C mutant + SOS: % inh.” value is “D (76-100% inhibition)”.

As to `COC1CCN(c2nc(-c3nccn3C)nc3sc(-c4cnc(C5CC5)o4)c(-c4ccccc4)c23)C1.Cl` (centres unmarked), the “KRas G12C mutant + SOS: % inh.” value is recorded as “C (51-75% inhibition)”.

Still in this test, the particulars now being: 20 μM; without SOS.
Consider `COCCn1cc(-c2sc3nc(-c4nccn4C)nc(N4CCC(OC)C4)c3c2-c2ccccc2)cn1.Cl` (centres unmarked), for which the “KRas G12C mutant: % inh.” value is “D (76-100% inhibition)”.

Take `COC1CCN(c2nc(-c3nccn3C)nc3sc(-c4cnc(C5CC5)o4)c(-c4ccccc4)c23)C1.Cl` (centres unmarked): the “KRas G12C mutant: % inh.” value is “C (51-75% inhibition)”.

Another test relates to KRas Q61H mutant. The description is as above. Also noted: species or system human. The note with it: 20 μM; with SOS. How it is done: as §1, §2, §3, §4, §5
In the case of `COCCn1cc(-c2sc3nc(-c4nccn4C)nc(N4CCC(OC)C4)c3c2-c2ccccc2)cn1.Cl` (centres unmarked), the “KRas Q61H mutant + SOS: % inh.” value was “C (51-75% inhibition)”.

Turning to `COC1CCN(c2nc(-c3nccn3C)nc3sc(-c4cnc(C5CC5)o4)c(-c4ccccc4)c23)C1.Cl` (centres unmarked), the “KRas Q61H mutant + SOS: % inh.” value is reported as “C (51-75% inhibition)”.

The same test, now with this note: 20 μM; without SOS.
Take `COCCn1cc(-c2sc3nc(-c4nccn4C)nc(N4CCC(OC)C4)c3c2-c2ccccc2)cn1.Cl` (centres unmarked): the “KRas Q61H mutant: % inh.” value is “B (26-50% inhibition)”.

For the molecule `COC1CCN(c2nc(-c3nccn3C)nc3sc(-c4cnc(C5CC5)o4)c(-c4ccccc4)c23)C1.Cl` (centres unmarked), the “KRas Q61H mutant: % inh.” value is “B (26-50% inhibition)”.

Source of the values: patent US20250296938A1, “Compounds that Interact with the Ras Superfamily for the Treatment of Cancers, Inflammatory Diseases, Rasopathies, and Fibrotic Disease” (SHY Therapeutics, LLC, priority 2018, published 2025).
